Results: patent US10654882B2, “Nicotinamide mononucleotide derivative and salt thereof, method for producing same, topical skin preparation, cosmetic and food additive” (SHOWA DENKO K.K., priority 2015, dated 2020)
Read-outs that look alike come from different tables or passages of the source.

System: three-dimensional cultured human skin model (EPI-606X)
Experiment: Skin permeability test
Procedure: A three-dimensional cultured human skin model (EPI-606X, Kurabo Industries Ltd., area: 3.8 cm^2) was placed in a 6-well plate containing PBS solution (1 mL) so that the lower portion thereof was submerged. The human skin model was then allowed to stand undisturbed for 30 minutes in an incubator under conditions of 37° C. and a carbon dioxide concentration of 5%. Next, the PBS solution in the lower wells of the skin model was replaced with HBSS(−) solution (Hanks solution, 1 mL) (to be referred to as the “receiver liquid”) and the sample solution (700 μL) obtained above was administered onto the skin model. The skin model was then allowed to stand undisturbed for 24 hours in an incubator under conditions of 37° C. and a carbon dioxide concentration of 5%.
After allowing to stand undisturbed for 24 hours, the sample solution on the skin model was removed using a pipette followed by removing the skin model from the wells and washing with PBS (−) solution. Next, a section of the skin model was cut out and placed in a 2 mL tube. Methanol (1 mL) and stainless steel beads (Tomy Co., Ltd., diameter: 5.5 mm) were added to the tube followed by crushing the section using a Multi Beads Shocker (Yasui Kikai Corp.) under conditions of 10 seconds at 2000 rpm for 10 cycles.
Following crushing, the resulting solution was transferred to a 2 mL Eppendorf tube and centrifuged for 5 minutes at 12000 rpm followed by filtering the supernatant with a filter (pore diameter: 0.22 μm) to obtain a skin model extract.
Next, the amounts of test substance in the skin model extract and receiver liquid were quantified for each test substance under the previously described HPLC Analysis Conditions 1. The total amount of test substance absorbed by the skin model in each well was calculated from the quantified value of test substance in the skin model extract. In addition, the quantified value of test substance in the receiver liquid was used as the amount of test substance that permeated the skin model. The total value A (μg) of the total amount of test substance absorbed by the skin model and the amount of test substance that permeated the skin model was then calculated.
The permeation rate (%) through the skin model for each test substance administered to the skin model was calculated according to the following equation (i). Moreover, the aforementioned skin permeability test was carried out three times for each test substance followed by calculation of each permeation rate (%). […] Furthermore, the value shown in front of the (±) symbol in the column entitled “Permeation Rate (%)” indicates the average value of the three results, while the number after the (±) symbol indicates the range of variation of the three results. Permeation rate (%)=(A/1400(amount of test substance administered to skin model) (μg)))×100 (i)

[1] = 0.2% by weight sample solution in PBS(-), pH 7.4, 700 μL on skin model, 24 hours, 37° C., average ± range of variation of three results
[2] = skin model, 24 hours, compared with non-acylated β-NMN or among the examples

Permeation Rate (%) (pH 7.4) | Permeation rate, comparison in words | SMILES | Permeation Rate (%) [1] | Permeation rate, comparison in words [2]
15 ± 0.4% |  | NC(=O)c1ccc[n+]([C@@H]2O[C@H](COP(=O)([O-])O)[C@@H](O)[C@H]2O)c1 [Comparative Example 2, β-nicotinamide mononucleotide, reference compound] |  | 
 |  | CCCCCCCCCCCCCCCC(=O)O[C@H]1[C@@H](O)[C@H]([n+]2cccc(C(N)=O)c2)O[C@@H]1COP(=O)([O-])O [Example 1, 3′-palmitoyl-β-nicotinamide mononucleotide] | 40 ± 4.7% | particularly high
40 ± 4.7% | particularly high | CCCCCCCCCCCC(=O)O[C@@H]1[C@H](OC(=O)CCCCCCCCCCC)[C@@H](COP(=O)([O-])O)O[C@H]1[n+]1cccc(C(N)=O)c1 [Example 4, 2′,3′-dilauroyl-β-NMN] |  | 
29 ± 4.7% |  | CCCCCC(=O)O[C@H]1[C@@H](O)[C@H]([n+]2cccc(C(N)=O)c2)O[C@@H]1COP(=O)([O-])O [Example 7, 3′-hexanoyl-β-NMN] |  | 
35 ± 4.7% | particularly high | CCCCCCCCCCCC(=O)O[C@H]1[C@@H](O)[C@H]([n+]2cccc(C(N)=O)c2)O[C@@H]1COP(=O)([O-])O [Example 3, 3′-lauroyl-β-NMN] |  | 
 |  | CC(=O)O[C@@H]1[C@H](OC(C)=O)[C@@H](COP(=O)([O-])O)O[C@H]1[n+]1cccc(C(N)=O)c1 [Synthesis Example 1, 2′,3′-diacetyl-β-nicotinamide mononucleotide, reference compound] | 16 ± 1.7% | equal to that of the non-acylated β-NMN of Comparative Example 2
 |  | CCCCCCCCCCCCCCCC(=O)O[C@@H]1[C@H](OC(=O)CCCCCCCCCCCCCCC)[C@@H](COP(=O)([O-])O)O[C@H]1[n+]1cccc(C(N)=O)c1 [Example 2, 2′,3′-dipalmitoyl-β-nicotinamide mononucleotide] | 41 ± 1.7% | particularly high
31 ± 4.7% |  | CCCCCCCC(=O)O[C@H]1[C@@H](O)[C@H]([n+]2cccc(C(N)=O)c2)O[C@@H]1COP(=O)([O-])O [Example 5, 3′-octanoyl-β-NMN] |  | 
 |  | CCCCCCCC(=O)OC1C(COP(=O)([O-])O)OC([n+]2cccc(C(N)=O)c2)C1OC(=O)CCCCCCC (stereo not drawn) [Example 6, 2′,3′-dioctanoyl-β-NMN] | 38 ± 4.7% | 
37 ± 2.7% |  | CCCCCC(=O)O[C@@H]1[C@H](OC(=O)CCCCC)[C@@H](COP(=O)([O-])O)O[C@H]1[n+]1cccc(C(N)=O)c1 [Example 8, 2′,3′-dihexanoyl-β-NMN] |  | 

SMILES | Permeation Rate (%) (pH 7.4) | Permeation rate, comparison in words | Permeation Rate (%) [1] | Permeation rate, comparison in words [2]
CCCCCCCCCCCCCCCC(=O)O[C@@H]1[C@H](OC(=O)CCCCCCCCCCCCCCC)[C@@H](COP(=O)([O-])[O-])O[C@H]1[n+]1cccc(C(N)=O)c1.[Na+] [Example 11, 2′,3′-dipalmitoyl-β-NMN sodium salt] | 41 ± 2.7% | high permeation rate in comparison with the non-acylated β-NMN of Comparative Example 2 |  | 
